{"source": "patent US20250082765A1", "about": "“MOLECULES AS ANTICANCER AGENTS FOR TARGETED TREATMENT OF BREAST AND PROSTATE CANCER” (priority 2021, published 2025)", "key": {"in vivo": {"assay": "in vivo", "conditions": "albino, mouse, intravenous", "method": "(§1) The route of administration incorporated for ester of citric acid with capecitabine and estrogen and ester of citric acid with capecitabine and dihydrotestosterone is through intravenous (IV) bolus.\n(§2) The biodistribution analysis was carried out for capecitabine in plasma. […] The biodistribution analysis was carried out in breast tissue for females and in prostate gland for males along with several other organs including blood, liver, lungs and spleen.\n(§3) The biodistribution analysis was carried out in three groups of albino mice. The female albino mice of age 7-8 weeks and weight 19g-35g were analyzed for the distribution of capecitabine in breast tissue. The male albino mice of age 7-8 weeks and weight 20g-30g were analyzed for the distribution of capecitabine in prostate gland. The study groups comprised of 3 groups including group 1, group 2 and group 3. The study group 1 comprised 6 mice receiving normal control, study group 2 comprised 6 mice receiving pure drug solution and study group 3 comprised 6 mice receiving molecule of formula (I) anticancer drug.\n(§4) The analysis of capecitabine in plasma was initiated by liquid-liquid extraction using ethyl acetate. The extraction was carried out on ethylene bridged hybrid (BEH) C18 (100×2.1 mm, 1.7 μm) column. An isocratic flow rate of 0.5 ml/min of acetonitrile (0.1%) and 0.002M ammonium acetate as mobile phase was incorporated. Mass spectrometry analysis was carried out in multiple reaction monitoring modes. The precursor to product ion transitions with mass to ion (m/z) ratio of 360.04 to 244.08 was found for capecitabine. […] The biodistribution data for capecitabine was obtained for concentrations ranging from 5 ng/ml and 40 ng/ml.\n(§5) The biodistribution of capecitabine was also analyzed for several other organs such as blood, liver, lungs and the spleen. […] The biodistribution of capecitabine was analyzed at time intervals of 0.5 hours, 1 hour and 2 hours. The biodistribution data was recorded for 6 mice."}, "[1]": {"assay": "Biodistribution analysis of capecitabine in other organs (blood, liver, lungs, spleen) of mice", "conditions": "later hours (1 hour, 2 hours)", "method": "as §1, §2, §3, §4, §5"}}}
{"smiles": "CCCCCOC(=O)Nc1nc(=O)n([C@@H]2O[C@H](C)[C@@H](O)[C@H]2O)cc1F", "note": "[capecitabine]", "values": [{"measurement": "concentration at 0.5 h", "setting": "in vivo; liver", "value": 13, "unit": "ng/mL"}, {"measurement": "concentration at 0.5 h", "setting": "in vivo; lungs", "value": 12.5, "unit": "ng/mL"}, {"measurement": "concentration at 0.5 h", "setting": "in vivo; spleen", "value": 12.1, "unit": "ng/mL"}, {"measurement": "concentration at 0.5 h", "setting": "in vivo; whole blood", "value": 13.6, "unit": "ng/mL"}, {"measurement": "biodistribution of capecitabine in blood", "setting": "[1]", "value": "negligible"}, {"measurement": "biodistribution of capecitabine in liver", "setting": "[1]", "value": "negligible"}, {"measurement": "biodistribution of capecitabine in lungs", "setting": "[1]", "value": "negligible"}, {"measurement": "biodistribution of capecitabine in spleen", "setting": "[1]", "value": "negligible"}]}
